Source: publication PMC12314892, “Macrocyclic Phage Display for Identification of Selective Protease Substrates” (Journal of the American Chemical Society, 2025)
Where a SMILES comes first, the peptide text is derived from it. The star is where a group is joined. AMC = Cc1cc(=O)oc2cc(N*)ccc12

Biological target: T1, Recombinant Human DPP9 (Homo sapiens, UniProt Q86TI2)
T1 construct: purchased R&D Systems 5419-SE-010
Test: Fluorogenic substrate cleavage assay
Type: biochemical
Settings: Supplementary figure 11; 200 μM, 1 hour at 37°C; 2 nM DPP4 vs 6 nM DPP9; RFU/min
Protocol: Fluorogenic Substrate Cleavage Assay
The following proteases were used for the activity assay: Recombinant Human FAPα Protein, CF (R&D Systems, Catalog No.: 3715-SE-010), Recombinant Human Prolyl Oligopeptidase/PREP Protein, CF (R&D Systems, Catalog No.: 4308-SE-010). Recombinant Human DPP9 Protein, CF (R&D Systems, Catalog No.: 5419-SE-010). Recombinant Human DPP4 Protein (Sino Biological, Catalog No.: 10688-HNCH-10). The buffers used for the activity assay were: FAPα - 50 mM Tris, 1 M NaCl, 1 mg/mL BSA, pH 7.5, PREP- 25 mM Tris, 250 mM NaCl, 2.5 mM DTT, pH 7.5 (DTT was freshly added immediately before use), DPP9- 25 mM Tris, pH 7.5, DPP4- 25 mM Tris, pH
7.5. The following commercial substrates were used: zGP-AMC (Bachem,Catalog No.: […]
conducted in Greiner Bio-One black microplates of 384 wells and polystyrene F-bottom (Catalog No.: 784076). All compounds were dissolved in DMSO at a concentration of 10 mM and then diluted into the respective buffer to the desired final concentration. The protease was added to the specified concentration before the fluorescence measurements. For fluorescence measurements, 2 μL of substrate was further diluted into 6 μL of buffer, followed by addition of 2 μL of enzyme in buffer. For no enzyme controls 2 μL of substrate was diluted into 8 μL of buffer.
The fluorescence was measured using a Cytation 3 plate reader (BioTek). All experiments have at least three technical replicates. All assays were conducted at 37°C for a minimum of 90 min, unless otherwise noted. Fluorescence measurements were performed at ex/em, 355/460 nm for ACC substrates. The substrates velocity was quantified by calculating the slope of the linear phase of the reaction as relative fluorescence units (RFU) per min. […]

T1 sequence (Q86TI2 whole entry): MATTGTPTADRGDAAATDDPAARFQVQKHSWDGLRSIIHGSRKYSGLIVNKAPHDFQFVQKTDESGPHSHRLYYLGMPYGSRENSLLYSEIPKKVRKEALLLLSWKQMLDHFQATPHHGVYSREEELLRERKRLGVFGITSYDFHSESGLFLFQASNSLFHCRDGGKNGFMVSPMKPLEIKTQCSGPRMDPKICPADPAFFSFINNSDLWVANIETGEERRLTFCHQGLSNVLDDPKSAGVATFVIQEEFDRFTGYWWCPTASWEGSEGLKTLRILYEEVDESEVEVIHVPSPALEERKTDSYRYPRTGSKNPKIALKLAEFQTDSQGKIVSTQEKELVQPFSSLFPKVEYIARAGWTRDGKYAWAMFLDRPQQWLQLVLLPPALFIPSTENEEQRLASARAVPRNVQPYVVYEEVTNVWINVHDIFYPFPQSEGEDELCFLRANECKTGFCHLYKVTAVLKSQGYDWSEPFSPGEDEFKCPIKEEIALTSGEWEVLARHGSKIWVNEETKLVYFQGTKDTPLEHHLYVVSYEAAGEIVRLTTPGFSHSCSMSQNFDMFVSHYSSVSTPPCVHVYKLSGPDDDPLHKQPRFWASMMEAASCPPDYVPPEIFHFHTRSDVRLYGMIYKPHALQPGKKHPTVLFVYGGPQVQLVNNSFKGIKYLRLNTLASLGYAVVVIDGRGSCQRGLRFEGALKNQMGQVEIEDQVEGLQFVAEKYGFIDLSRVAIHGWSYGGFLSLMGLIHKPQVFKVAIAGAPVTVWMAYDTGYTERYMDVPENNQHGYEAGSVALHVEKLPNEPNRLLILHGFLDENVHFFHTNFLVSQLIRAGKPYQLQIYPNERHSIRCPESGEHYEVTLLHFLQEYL

selectivity for DPP4 (vs DPP9): 11 fold
SMILES: Cc1cc(=O)oc2cc(NC(=O)[C@@H]3CCCN3C(=O)CN)ccc12 [GP-AMC] (H-Gly-Pro-{AMC})
